From US10793554B2, “Solid forms of 4-(2-fluoro-4-(1-methyl-1H-benzo[d]imidazol-5-yl)benzoyl)piperazin-1-yl)(1-hydroxycyclopropyl)methanone” (FORMA Therapeutics, Inc., priority 2018, dated 2020)
≈ marks a conversion by molar mass, not a printed value. Entries after “also recorded” stand apart in the source; their conditions may differ. Blank lines part the entries; values can stand above or below the molecule they belong to.

Key:
Type in all cases: physicochemical
[1] = Chemical stability study at elevated temperature and controlled relative humidity
Method: A study was conducted on a sample of Compound 1 (Form B) where samples were exposed (open) to a range of elevated temperatures (50-80° C.) and controlled relative humidity (RH) (0-80% RH).

[2] = Slurry competition of Form B and Form C at different water activity (XRPD); conditions: for Results (solid form after slurry competition): 4 days
Method: (§1) High resolution XRPD experiments were performed with Panalytical X′Pert^3 Powder XRPD on a Si zero-background holder. The 2θposition was calibrated against Panalytical 640 Si powder standard.
Form C was dissolved in three solvent mixtures (see Table 7) to get saturated solutions. Similar mass of Form B and Form C were added into the saturated solutions. The suspensions obtained were stirred at room temperature for 4 days and the solids collected were analyzed with XRPD.

[3] = Slurry stability evaluation of Mixture A (XRPD of collected solids); conditions: 4 days
Method: as §1
The solids collected were analyzed by XRPD to confirm the form change.

[4] = Kinetic solubility of Form B in formulation (0.5% MC, 0.5% Tween 80 in water), HPLC; conditions: 0.5% MC and 0.5% Tween 80 in water
Method: High Pressure Liquid Chromatography (HPLC) data was obtained according to Table 5, below:
(§2) Kinetic solubility and phase stability of Form B was tested in a formulation (0.5% methyl cellulose (MC) and 0.5% Tween 80 in water). The sample was monitored by XRPD at 1, 2, 4 and 24 hours for phase stability. […] Kinetic solubility of Form B was measured in the same formulation at time points of 1, 2, 4 and 24 hour (Table 8). The supernatant was obtained by filtration and the concentration was measured by HPLC.

[5] = Dynamic Vapor Sorption (DVS) of Form B
From the text: DVS was obtained using a Surface Measurement System (SMS) DVS Intrinsic. The details of the method are providing in Table 4, below:
The sample was non-hygroscopic.

[6] = Phase stability of Form B in formulation (XRPD); conditions: after 24 h; 0.5% MC and 0.5% Tween 80 in water
Method: as §1, §2

estimated shelf life ([1]; 25° C./60% RH, Form B sample): greater than 5 years
chemical stability ([1]; Form B sample exposed open to 50-80° C., 0-80% RH): good chemical stability
SMILES: Cn1cnc2cc(-c3ccc(C(=O)N4CCN(C(=O)C5(O)CC5)CC4)c(F)c3)ccc21 [Compound 1, (4-(2-fluoro-4-(1-methyl-1H-benzo[d]imidazol-5-yl)benzoyl)piperazin-1-yl)(1-hydroxycyclopropyl)methanone]

Results (solid form after slurry competition) ([2]; H2O/MeOH (85:915 v/v), Aw 0.25, RT): Form B
Results (solid form after slurry competition) ([2]; H2O/MeOH (225:775 v/v), Aw 0.5, RT): Form B
Results (solid form after slurry competition) ([2]; H2O/MeOH (494:506 v/v), Aw 0.75, 50° C.): Form B
form conversion in slurry competition (summary) ([2]; H2O/MeOH mixtures, Aw 0.25-0.75, 4 days): converted completely to Form B
SMILES: Cn1cnc2cc(-c3ccc(C(=O)N4CCN(C(=O)C5(O)CC5)CC4)c(F)c3)ccc21 [Form B and Form C, (4-(2-fluoro-4-(1-methyl-1H-benzo[d]imidazol-5-yl)benzoyl)piperazin-1-yl)(1-hydroxycyclopropyl)methanone]

Results (solid form after slurry) ([3]; ACN, 50° C.): Form B
Results (solid form after slurry) ([3]; ACN, RT): Form B
form conversion of solids from the slurries (summary) ([3]; EtOAc or ACN, RT or 50° C.): converted to Form B completely
Results (solid form after slurry) ([3]; EtOAc, 50° C.): Form B
Results (solid form after slurry) ([3]; EtOAc, RT): Form B
SMILES: Cn1cnc2cc(-c3ccc(C(=O)N4CCN(C(=O)C5(O)CC5)CC4)c(F)c3)ccc21 [Mixture A, (4-(2-fluoro-4-(1-methyl-1H-benzo[d]imidazol-5-yl)benzoyl)piperazin-1-yl)(1-hydroxycyclopropyl)methanone]

solubility at 1 h ([4]; 0.5% methyl cellulose and 0.5% Tween 80 in water, aqueous with cosolvent or surfactant or cyclodextrin, thermodynamic from solid, 1 h, RT): 62 µg/mL (≈ 147 µM)
solubility at 2 h ([4]; 0.5% methyl cellulose and 0.5% Tween 80 in water, aqueous with cosolvent or surfactant or cyclodextrin, thermodynamic from solid, 2 h, RT): 62 µg/mL (≈ 147 µM)
solubility at 4 h ([4]; 0.5% methyl cellulose and 0.5% Tween 80 in water, aqueous with cosolvent or surfactant or cyclodextrin, thermodynamic from solid, 4 h, RT): 63 µg/mL (≈ 149 µM)
solubility at 24 h ([4]; 0.5% methyl cellulose and 0.5% Tween 80 in water, aqueous with cosolvent or surfactant or cyclodextrin, thermodynamic from solid, 24 h, RT): 60 µg/mL (≈ 142 µM)
Purity of solubility sample ([4]; 1 h): 97.8 % area at 240 nm
Purity of solubility sample ([4]; 2 h): 97.8 % area at 240 nm
Purity of solubility sample ([4]; 4 h): 97.7 % area at 240 nm
Purity of solubility sample ([4]; 24 h): 97.7 % area at 240 nm
course of solubility over time ([4]; during 24 hours at RT): remained stable
form change before and after DVS (XRPD) [5]: no form change
hygroscopicity (DVS) ([5]; 25° C.): non-hygroscopic
mass change (DVS) ([5]; from 0% RH to 95% RH at 25° C.): 0.46 wt %
SMILES: Cn1cnc2cc(-c3ccc(C(=O)N4CCN(C(=O)C5(O)CC5)CC4)c(F)c3)ccc21 [Form B, (4-(2-fluoro-4-(1-methyl-1H-benzo[d]imidazol-5-yl)benzoyl)piperazin-1-yl)(1-hydroxycyclopropyl)methanone]
degradation in the solubility sample / vehicle ([4]; up to 24 h): No significant degradation; also recorded: no form change or significant degradation
phase transformation / form change in formulation (XRPD) [6]: no phase transformation; also recorded: no form change
